Measurements as given in ChEMBL document CHEMBL1201862, “PubChem BioAssay data set” (2004).
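Interpolation was linear, between the two tested concentrations surrounding the appropriate level; five concentrations were tested over 48 hours in 96-well plates. Abbreviation: GI50, concentration required for 50% inhibition of growth.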 Activity calls are given as the source filed them. No stated cut-off is given here; in the data, active = GI50 up to about 1.1 µM and inactive = higher.

What was measured:
Test in all cases: NCI tumour cell line growth inhibition, 48 h
786-0 = system: 786-0
A498 = system: A498
A549 = system: A549
ACHN = system: ACHN
BT-549 = system: BT-549
CAKI-1 = system: CAKI-1
CCRF-CEM = system: CCRF-CEM
COLO 205 = system: COLO 205
DU-145 = system: DU-145
EKVX = system: EKVX
HCC 2998 = system: HCC 2998
HCT-116 = system: HCT-116
HCT-15 = system: HCT-15
HL-60 = system: HL-60
HOP-62 = system: HOP-62
HOP-92 = system: HOP-92
HT-29 = system: HT-29
Hs-578T = system: Hs-578T
IGROV-1 = system: IGROV-1
K562 = system: K562
KM12 = system: KM12
LOX IMVI = system: LOX IMVI
MCF7 = system: MCF7
MDA-MB-231 = system: MDA-MB-231
MDA-MB-435 = system: MDA-MB-435
MDA-N = system: MDA-N
Malme-3M = system: Malme-3M
NCI-H226 = system: NCI-H226
NCI-H23 = system: NCI-H23
NCI-H460 = system: NCI-H460
NCI-H522 = system: NCI-H522
NCI/ADR-RES = system: NCI/ADR-RES
OVCAR-3 = system: OVCAR-3
OVCAR-4 = system: OVCAR-4
OVCAR-5 = system: OVCAR-5
OVCAR-8 = system: OVCAR-8
PC-3 = system: PC-3
RPMI-8226 = system: RPMI-8226
RXF 393 = system: RXF 393
SF-268 = system: SF-268
SF-295 = system: SF-295
SF-539 = system: SF-539
SK-MEL-28 = system: SK-MEL-28
SK-MEL-2 = system: SK-MEL-2
SK-MEL-5 = system: SK-MEL-5
SK-OV-3 = system: SK-OV-3
SN12C = system: SN12C
SNB-75 = system: SNB-75
SR = system: SR
SW-620 = system: SW-620
T47D = system: T47D
TK-10 = system: TK-10
U-251 = system: U-251
UACC-257 = system: UACC-257
UACC-62 = system: UACC-62

Structure (SMILES): O=C(O)CCC1(c2ccccc2)NC(=O)NC1=O (stereo not given)
- GI50 (786-0): > 100 µM (inactive)
- GI50 (A498): > 100 µM (inactive)
- GI50 (A549): > 100 µM (inactive)
- GI50 (ACHN): > 100 µM (inactive)
- GI50 (BT-549): > 100 µM (inactive)
- GI50 (CAKI-1): > 100 µM (inactive)
- GI50 (CCRF-CEM): > 100 µM (inactive)
- GI50 (COLO 205): > 100 µM (inactive)
- GI50 (DU-145): > 100 µM (inactive)
- GI50 (EKVX): > 100 µM (inactive)
- GI50 (HCC 2998): > 100 µM (inactive)
- GI50 (HCT-116): > 100 µM (inactive)
- GI50 (HCT-15): > 100 µM
- GI50 (HL-60): > 100 µM (inactive)
- GI50 (HOP-62): > 100 µM (inactive)
- GI50 (HOP-92): > 100 µM (inactive)
- GI50 (HT-29): > 100 µM (inactive)
- GI50 (Hs-578T): > 100 µM (inactive)
- GI50 (IGROV-1): > 100 µM (inactive)
- GI50 (K562): > 100 µM (inactive)
- GI50 (KM12): > 100 µM (inactive)
- GI50 (LOX IMVI): > 100 µM (inactive)
- GI50 (MCF7): > 100 µM (inactive)
- GI50 (MDA-MB-231): > 100 µM (inactive)
- GI50 (MDA-MB-435): > 100 µM (inactive)
- GI50 (MDA-N): > 100 µM (inactive)
- GI50 (Malme-3M): > 100 µM (inactive)
- GI50 (NCI-H226): > 100 µM (inactive)
- GI50 (NCI-H23): > 100 µM (inactive)
- GI50 (NCI-H460): > 100 µM (inactive)
- GI50 (NCI-H522): > 100 µM (inactive)
- GI50 (NCI/ADR-RES): > 100 µM (inactive)
- GI50 (OVCAR-3): > 100 µM (inactive)
- GI50 (OVCAR-4): > 100 µM (inactive)
- GI50 (OVCAR-5): > 100 µM (inactive)
- GI50 (OVCAR-8): > 100 µM (inactive)
- GI50 (PC-3): > 100 µM (inactive)
- GI50 (RPMI-8226): > 100 µM (inactive)
- GI50 (RXF 393): > 100 µM (inactive)
- GI50 (SF-268): > 100 µM (inactive)
- GI50 (SF-295): > 100 µM (inactive)
- GI50 (SF-539): > 100 µM (inactive)
- GI50 (SK-MEL-28): > 100 µM (inactive)
- GI50 (SK-MEL-2): > 100 µM (inactive)
- GI50 (SK-MEL-5): > 100 µM (inactive)
- GI50 (SK-OV-3): > 100 µM (inactive)
- GI50 (SN12C): > 100 µM (inactive)
- GI50 (SNB-75): > 100 µM (inactive)
- GI50 (SR): > 100 µM (inactive)
- GI50 (SW-620): > 100 µM (inactive)
- GI50 (T47D): > 100 µM (inactive)
- GI50 (TK-10): > 100 µM (inactive)
- GI50 (U-251): > 100 µM (inactive)
- GI50 (UACC-257): > 100 µM (inactive)
- GI50 (UACC-62): > 100 µM (inactive)
